According to the SangsterLogP compilation:

Assay: method code SF-HPLC, from Hansch, C., Leo, A., & Hoekman, D. (1995). Exploring QSAR: hydrophobic, electronic, and steric constants (Vol. 2). Washington, DC: American Chemical Society.
Conditions: pH 7.4

With `COc1ccc2cc(C(C)C(=O)OC(O)C(=O)N(C)CCO)ccc2c1` (stereo not given) the logD was 2.01.

Assay: not given
Conditions: not given

Compared with `OC1(c2ccc(Cl)cc2)CCN(CCCC2(c3ccc(F)cc3)OCCO2)CC1`, `O=C1NCN(c2ccccc2)C12CCN(CCCC(c1ccc(F)cc1)c1ccc(F)cc1)CC2` is higher in logP: 3.84 for the first, 5.86 for the second.

Going from `c1ccc(Cn2cccc2)cc1` to `c1ccc(Cn2cnnn2)cc1`, the logP falls from 2.71 to 1.36.

First: CCN1CCC[C@H]1CNC(=O)c1cc(I)ccc1OC
Second: C#CCNS(=O)(=O)c1ccc(OC)c(C(=O)NCC2CCCN2CC)c1 (stereo not given)
The logP of the first is higher: 3.23 for the first, 2.42 for the second.

Compared with `CC1(C)CN(CCN2CCN(c3cccc(Cl)c3)C2=O)C1`, `CCCN1CCCC1CNC(=O)c1cc(S(N)(=O)=O)ccc1OC` (stereo not given) is lower in logP: 3.91 for the first, 2.06 for the second.

Going from `c1ccc(Cn2ncnn2)cc1` to `COc1ccc(S(N)(=O)=O)cc1C(=O)NC1CC2CCCC1N2Cc1ccccc1` (stereo not given), the logP rises from 1.03 to 2.88.

Compared with `O=C(O)Cc1c[nH]c2ccc(O)cc12`, `O=C(O)Cc1nn(Cc2ccc(Br)cc2F)c(=O)c2ccccc12` is higher in logP: 1.17 for the first, 2.68 for the second.

Going from `c1ccc(NCCCOc2cccc(CN3CCCCC3)c2)nc1` to `OCCC1CCN(CC/C=C2\c3ccc(F)cc3Sc3ccc(C(F)(F)F)cc32)CC1`, the logP falls from 4.29 to 4.09.

Compared with `O=C1NC(=O)[C@@]2(CCOc3ccc(F)cc32)N1`, `O=C(O)Cc1nn(Cc2nc3cc(F)ccc3s2)c(=O)c2ccccc12` is higher in logP: 0.78 for the first, 1.86 for the second.

`CCN1CCCC1CNC(=O)c1cc(N(C)S(C)(=O)=O)c(Cl)cc1OC` (stereo not given) and `CCN1CCCC1CNC(=O)c1cc(NS(N)(=O)=O)c(Cl)cc1OC` (stereo not given) are within 0.2 log units of each other in logP: 2.62 for the first, 2.66 for the second.

First: CC(=O)c1c(C)n(C)c2ccccc12
Second: CC(C)=CC1C(C(=O)OCc2ccc(C)cc2C)C1(C)C (stereo not given)
The logP of the first is lower: 2.03 for the first, 4.5 for the second.

Going from `CCc1c(C)[nH]c2c1C(=O)C1CN(C)CCC1C2` (stereo not given) to `C#CC(C)(C)NS(=O)(=O)c1ccc(OC)c(C(=O)NCC2CCCN2CC)c1` (stereo not given), the logP rises from 1.78 to 2.8.

For `COc1cc(Cc2cnc(N)nc2N)cc(Br)c1OC`, the logP was 2.23.

Assay: method code SF-AS, from Hansch, C., Leo, A., & Hoekman, D. (1995). Exploring QSAR: hydrophobic, electronic, and steric constants (Vol. 2). Washington, DC: American Chemical Society.
Conditions: not given

Compared with `CCc1cccc2c1OCCOCCOCCOCCOCCO2`, `CC(=O)c1ccc2c(c1)OCCOCCOCCOCCOCCO2` is lower in logP: 0.98 for the first, -0.05 for the second.

Compared with `CC(C)(C)c1ccc2c(c1)OCCOCCOCCOCCOc1cc(C(C)(C)C)ccc1OCCOCCOCCOCCO2`, `c1ccc2c(c1)OCCOCCOc1ccccc1OCCO2` is lower in logP: 3.32 for the first, 2.21 for the second.

Same assay, conditions: pH 2.1

For `O=C(O)C[N+]1([O-])CCN(C(=O)Cn2c(=O)sc3ccc(Cl)cc32)CC1`, the logD was 0.21.

Same assay, conditions: pH 6.4

Work on `CC1=NN(CCOc2ccc3ccccc3c2)C(=O)C1` yielded a logD of 2.74.

Same assay, conditions: pH 7.2

`Cc1ccc(NN=C(C#N)C#N)c([N+](=O)[O-])c1` and `Cc1ccccc1NN=C(C#N)C#N` are within 0.2 log units of each other in logD: 2.5 for the first, 2.38 for the second.

Compared with `N#CC(C#N)=NNc1ccccc1C(F)(F)F`, `N#CC(C#N)=NNc1ccccc1Br` is lower in logD: 4.2 for the first, 3.11 for the second.

In the case of `N#CC(C#N)=NNc1cccc(Cl)c1Cl`, the logD is reported as 3.85.

Same assay, conditions: pH 7.4

`O=C(NP(=O)(N1CC1)N1CC1)c1ccc(Br)cc1` and `O=C(NP(=O)(N1CC1)N1CC1)c1ccccc1I` are within 0.2 log units of each other in logD: 0.97 for the first, 1.05 for the second.

`O=C(Cn1c(=O)sc2ccc(Cl)cc21)N1CC[N+]([O-])(CCO)CC1` gave a logD of 0.05.

Assay: method code G, from Hansch, C., Leo, A., & Hoekman, D. (1995). Exploring QSAR: hydrophobic, electronic, and steric constants (Vol. 2). Washington, DC: American Chemical Society.
Conditions: not given

`CCC(=O)C(Cc1ccc(Cl)cc1)S(=O)(=O)c1ccccc1` (stereo not given) and `CCC(=O)C(Cc1ccc(C)cc1)S(=O)(=O)c1ccccc1` (stereo not given) are within 0.2 log units of each other in logP: 2.69 for the first, 2.7 for the second.

`CCC(=O)C(Cc1ccc(C)cc1)S(=O)(=O)c1ccc(C)cc1` (stereo not given) and `CCC(=O)C(Cc1ccc(Cl)cc1)S(=O)(=O)c1ccc(C)cc1` (stereo not given) are within 0.2 log units of each other in logP: 3.3 for the first, 3.43 for the second.

Going from `CCC(=O)C(Cc1ccccc1)S(=O)(=O)c1ccccc1` (stereo not given) to `CCC(=O)C(Cc1ccccc1)S(=O)(=O)c1ccc(C)cc1` (stereo not given), the logP rises from 1.82 to 2.45.

Work on `CCC(=O)C(Cc1ccc(OC)cc1)S(=O)(=O)c1ccc(C)cc1` (stereo not given) yielded a logP of 2.47.
